This is an account of results in patent US20070128217A1 (priority 2003, published 2007).

The test system of assay [1] is rabbit serum obtained by immunizing a rabbit with the SARS-CoV strain Frankfurt 1. Type of assay: binding. Details: Binding of a rabbit serum to linear peptides / Binding of a rabbit serum to looped peptides / Rabbit serum linear peptides / Rabbit serum looped peptides / Binding of a rabbit serum to linear peptides of protein N of SARS-CoV Urbani (Rabbit serum linear peptides) / Binding of a rabbit serum to looped/cyclic peptides of protein N of SARS-CoV Urbani (Rabbit serum looped peptides): unit not given here.

Assay [2] has as its system control sera (pooled serum of ten healthy LUMC hospital workers; commercial negative donor pooled serum from the Dutch bloodbank). Type of assay: binding, human. Details: Binding of Control serum LUMC to linear peptides / Binding of Control serum Blood-bank to linear peptides / Binding of Control serum LUMC to looped peptides / Binding of Control Serum Blood-Bank to Looped peptides / Binding of Control serum LUMC to linear peptides of the protein M of SARS-CoV Urbani / Binding of Control serum Blood-bank to linear peptides of the protein M of SARS-CoV Urbani / Binding of Control serum LUMC to looped peptides of the protein M of SARS-CoV Urbani / Binding of Control Serum Blood-Bank to Looped peptides of the protein M of SARS-CoV Urbani: unit not given here.

Assay [3] deals with antibodies in sera from SARS patients (sera 1a, 1b, 2, 6, 37, 62, London, SARS-yellow, SARS-green). Type of assay: binding, human. Details: Binding of serum 6 to linear peptides of protein X1 of SARS-CoV Urbani / Binding of serum 37 to linear peptides of protein X1 of SARS-CoV Urbani / Binding of serum 6 to looped/cyclic peptide (PEPSCAN-ELISA) / Binding of serum 37 to looped/cyclic peptide (PEPSCAN-ELISA) / Binding of serum 37 to looped/cyclic peptides of protein X1 of SARS-CoV Urbani / Binding of serum 6 to linear peptides of protein X2 / Binding of serum 37 to linear peptides of protein X2 / Binding of serum 37 to looped/cyclic peptides of protein X2 of SARS-CoV Urbani / Binding of serum 6 to linear peptides of protein M of SARS-CoV Urbani / Binding of serum 37 to linear peptides of protein M of SARS-CoV Urbani / Binding of serum 6 to looped/cyclic peptides of protein M of SARS-CoV Urbani / Binding of serum 37 to looped/cyclic peptides of protein M of SARS-CoV Urbani / Binding of serum 6 to linear peptides of protein X3 of SARS-CoV Urbani / Binding of serum 37 to linear peptides of protein X3 of SARS-CoV Urbani / Binding of serum 37 to looped/cyclic peptides of protein X3 of SARS-CoV Urbani / Binding of serum 6 to linear peptides of protein X4 of SARS-CoV Urbani / Binding of serum 37 to linear peptides of protein X4 of SARS-CoV Urbani / Binding of serum 37 to looped/cyclic peptides of protein X4 of SARS-CoV Urbani / Binding of serum 6 to linear peptides of protein X5 of SARS-CoV Urbani / Binding of serum 37 to linear peptides of protein X5 of SARS-CoV Urbani / Binding of serum 37 to looped/cyclic peptides of protein X5 of SARS-CoV Urbani / Binding of serum 6 to linear peptides of protein N of SARS-CoV Urbani / Binding of serum 37 to linear peptides of protein N of SARS-CoV Urbani / Binding of serum 6 to linear peptide (PEPSCAN-ELISA) / Binding of serum 1a to looped/cyclic peptides of protein N of SARS-CoV Urbani / Binding of serum 1b to looped/cyclic peptides of protein N of SARS-CoV Urbani / Binding of serum 2 to looped/cyclic peptides of protein N of SARS-CoV Urbani / Binding of serum 6 to looped/cyclic peptides of protein N of SARS-CoV Urbani / Binding of serum 37 to looped/cyclic peptides of protein N of SARS-CoV Urbani / Binding of serum 62 to looped/cyclic peptides of protein N of SARS-CoV Urbani / Binding of serum London to looped/cyclic peptides of protein N of SARS-CoV Urbani / Binding of serum SARS-green to looped/cyclic peptides of protein N of SARS-CoV Urbani: unit not given here.

For the sequence LFVTIYSHLLLVAAG, in assay [1], the “Binding of a rabbit serum to linear peptides” value was 0.1 and the “Binding of a rabbit serum to looped peptides” value is on record as 0.6. In addition, in assay [2], the “Binding of Control Serum Blood-Bank to Looped peptides” value is given as 0.6, the “Binding of Control serum Blood-bank to linear peptides” value was 0.5, the “Binding of Control serum LUMC to linear peptides” value is given as 0.4 and the “Binding of Control serum LUMC to looped peptides” value stood at 0.6. Besides, in assay [3], the “Binding of serum 1a to linear peptides of protein X1 of SARS-CoV Urbani” value was determined as 0.7, the “Binding of serum 1a to looped/cyclic peptide (PEPSCAN-ELISA)” value worked out at 0.5, the “Binding of serum 1b to linear peptides of protein X1 of SARS-CoV Urbani” value came to 0.4 and the “Binding of serum 1b to looped/cyclic peptide (PEPSCAN-ELISA)” value was 0.3. Besides, in assay [3], the “Binding of serum 2 to linear peptides of protein X1 of SARS-CoV Urbani” value came out at 0.6, the “Binding of serum 2 to looped/cyclic peptide (PEPSCAN-ELISA)” value worked out at 0.4, the “Binding of serum 6 to linear peptides of protein X1 of SARS-CoV Urbani” value is 0.3 and the “Binding of serum 6 to looped/cyclic peptide (PEPSCAN-ELISA)” value is 0.2. In assay [3], the “Binding of serum 37 to linear peptides of protein X1 of SARS-CoV Urbani” value was 0.6, the “Binding of serum 37 to looped/cyclic peptide (PEPSCAN-ELISA)” value came out at 0.5, the “Binding of serum 62 to linear peptides of protein X1 of SARS-CoV Urbani” value is reported as 0.5 and the “Binding of serum 62 to looped/cyclic peptide (PEPSCAN-ELISA)” value is 0.5. Besides, in assay [3], the “Binding of serum London to linear peptides of protein X1 of SARS-CoV Urbani” value was found to be 0.2, the “Binding of serum London to looped/cyclic peptide (PEPSCAN-ELISA)” value is 0.2, the “Binding of serum SARS-green to linear peptides of protein X1 of SARS-CoV Urbani” value was 0.2 and the “Binding of serum SARS-green to looped/cyclic peptide (PEPSCAN-ELISA)” value is on record as 0.3. In addition, in assay [3], the “Binding of serum SARS-yellow to linear peptides of protein X1 of SARS-CoV Urbani” value was 0.5 and the “Binding of serum SARS-yellow to looped/cyclic peptide (PEPSCAN-ELISA)” value was determined as 0.4.
With LIARCWYLHEGHQTA, in assay [1], the “Rabbit serum linear peptides” value stood at 0.8 and the “Rabbit serum looped peptides” value is 0.0. Also, in assay [2], the “Binding of Control Serum Blood-Bank to Looped peptides” value is recorded as 0.3, the “Binding of Control serum Blood-bank to linear peptides” value was 0.6, the “Binding of Control serum LUMC to linear peptides” value is 0.4 and the “Binding of Control serum LUMC to looped peptides” value came out at 0.0. In assay [3], the “Binding of serum 1a to linear peptides of protein X5 of SARS-CoV Urbani” value turned out to be 0.7, the “Binding of serum 1a to looped/cyclic peptides of protein X5 of SARS-CoV Urbani” value stood at 0.4, the “Binding of serum 1b to linear peptides of protein X5 of SARS-CoV Urbani” value is 0.6 and the “Binding of serum 1b to looped/cyclic peptides of protein X5 of SARS-CoV Urbani” value turned out to be 0.4. In assay [3], the “Binding of serum 2 to linear peptides of protein X5 of SARS-CoV Urbani” value is 0.6, the “Binding of serum 2 to looped/cyclic peptides of protein X5 of SARS-CoV Urbani” value worked out at 0.2, the “Binding of serum 6 to linear peptides of protein X5 of SARS-CoV Urbani” value amounted to 0.1 and the “Binding of serum 6 to looped/cyclic peptides of protein X5 of SARS-CoV Urbani” value was 0.1. Besides, in assay [3], the “Binding of serum 37 to linear peptides of protein X5 of SARS-CoV Urbani” value stood at 0.8, the “Binding of serum 37 to looped/cyclic peptides of protein X5 of SARS-CoV Urbani” value is 0.3, the “Binding of serum 62 to linear peptides of protein X5 of SARS-CoV Urbani” value turned out to be 0.9 and the “Binding of serum 62 to looped/cyclic peptides of protein X5 of SARS-CoV Urbani” value is recorded as 0.1. Also, in assay [3], the “Binding of serum London to linear peptides of protein X5 of SARS-CoV Urbani” value worked out at 0.6, the “Binding of serum London to looped/cyclic peptides of protein X5 of SARS-CoV Urbani” value stood at 0.0, the “Binding of serum SARS-green to linear peptides of protein X5 of SARS-CoV Urbani” value turned out to be 0.6 and the “Binding of serum SARS-green to looped/cyclic peptides of protein X5 of SARS-CoV Urbani” value amounted to 0.6. Also, in assay [3], the “Binding of serum SARS-yellow to linear peptides of protein X5 of SARS-CoV Urbani” value is recorded as 0.0 and the “Binding of serum SARS-yellow to looped/cyclic peptides of protein X5 of SARS-CoV Urbani” value is recorded as 0.0.
As to LIQQWIQFMMSRRRL, in assay [1], the “Binding of a rabbit serum to linear peptides” value worked out at 0.3 and the “Binding of a rabbit serum to looped peptides” value was found to be 1.2. In addition, in assay [2], the “Binding of Control Serum Blood-Bank to Looped peptides” value is 0.4, the “Binding of Control serum Blood-bank to linear peptides” value amounted to 0.7, the “Binding of Control serum LUMC to linear peptides” value was 0.5 and the “Binding of Control serum LUMC to looped peptides” value is 0.6. Besides, in assay [3], the “Binding of serum 1a to linear peptides of protein X2” value is listed as 0.7, the “Binding of serum 1a to looped/cyclic peptides of protein X2 of SARS-CoV Urbani” value came out at 0.5, the “Binding of serum 1b to linear peptides of protein X2” value stood at 0.4 and the “Binding of serum 1b to looped/cyclic peptides of protein X2 of SARS-CoV Urbani” value stood at 0.5. Also, in assay [3], the “Binding of serum 2 to linear peptides of protein X2” value was 0.4, the “Binding of serum 2 to looped/cyclic peptides of protein X2 of SARS-CoV Urbani” value is 0.8, the “Binding of serum 6 to linear peptides of protein X2” value came out at 0.7 and the “Binding of serum 6 to looped/cyclic peptides of protein X2 of SARS-CoV Urbani” value was 0.5. Also, in assay [3], the “Binding of serum 37 to linear peptides of protein X2” value stood at 0.6, the “Binding of serum 37 to looped/cyclic peptides of protein X2 of SARS-CoV Urbani” value was found to be 0.5, the “Binding of serum 62 to linear peptides of protein X2” value came out at 0.5 and the “Binding of serum 62 to looped/cyclic peptides of protein X2 of SARS-CoV Urbani” value is 0.8. Besides, in assay [3], the “Binding of serum London to linear peptides of protein X2” value is 0.5, the “Binding of serum London to looped/cyclic peptides of protein X2 of SARS-CoV Urbani” value is listed as 0.9, the “Binding of serum SARS-green to linear peptides of protein X2” value amounted to 0.4 and the “Binding of serum SARS-green to looped/cyclic peptides of protein X2 of SARS-CoV Urbani” value was found to be 0.3. Also, in assay [3], the “Binding of serum SARS-yellow to linear peptides of protein X2” value is reported as 0.8 and the “Binding of serum SARS-yellow to looped/cyclic peptides of protein X2 of SARS-CoV Urbani” value is on record as 0.5.
For the sequence LIVAALVFLILCFTI, in assay [1], the “Rabbit serum linear peptides” value was determined as 0.5 and the “Rabbit serum looped peptides” value stood at 0.4. Further, in assay [2], the “Binding of Control Serum Blood-Bank to Looped peptides” value was found to be 0.5, the “Binding of Control serum Blood-bank to linear peptides” value was 0.6, the “Binding of Control serum LUMC to linear peptides” value amounted to 0.4 and the “Binding of Control serum LUMC to looped peptides” value stood at 0.5. Moreover, in assay [3], the “Binding of serum 1a to linear peptides of protein X4 of SARS-CoV Urbani” value came out at 0.7, the “Binding of serum 1a to looped/cyclic peptides of protein X4 of SARS-CoV Urbani” value came out at 0.6, the “Binding of serum 1b to linear peptides of protein X4 of SARS-CoV Urbani” value stood at 0.5 and the “Binding of serum 1b to looped/cyclic peptides of protein X4 of SARS-CoV Urbani” value was 0.3. In assay [3], the “Binding of serum 2 to linear peptides of protein X4 of SARS-CoV Urbani” value turned out to be 0.5, the “Binding of serum 2 to looped/cyclic peptides of protein X4 of SARS-CoV Urbani” value stood at 0.5, the “Binding of serum 6 to linear peptides of protein X4 of SARS-CoV Urbani” value worked out at 0.4 and the “Binding of serum 6 to looped/cyclic peptides of protein X4 of SARS-CoV Urbani” value worked out at 0.3. For the same sequence, in assay [3], the “Binding of serum 37 to linear peptides of protein X4 of SARS-CoV Urbani” value amounted to 0.6, the “Binding of serum 37 to looped/cyclic peptides of protein X4 of SARS-CoV Urbani” value was 0.6, the “Binding of serum 62 to linear peptides of protein X4 of SARS-CoV Urbani” value amounted to 0.6 and the “Binding of serum 62 to looped/cyclic peptides of protein X4 of SARS-CoV Urbani” value is on record as 0.6. In assay [3], the “Binding of serum London to linear peptides of protein X4 of SARS-CoV Urbani” value amounted to 0.6, the “Binding of serum London to looped/cyclic peptides of protein X4 of SARS-CoV Urbani” value is listed as 0.2, the “Binding of serum SARS-green to linear peptides of protein X4 of SARS-CoV Urbani” value was found to be 0.5 and the “Binding of serum SARS-green to looped/cyclic peptides of protein X4 of SARS-CoV Urbani” value is 0.4. Besides, in assay [3], the “Binding of serum SARS-yellow to linear peptides of protein X4 of SARS-CoV Urbani” value was 0.4 and the “Binding of serum SARS-yellow to looped/cyclic peptides of protein X4 of SARS-CoV Urbani” value was determined as 0.5.
